For one compound, IC50 results are on record in US20180009797A1, “AZA-ARYL 1H-PYRAZOL-1-YL BENZENE SULFONAMIDES” (ChemoCentryx, Inc., priority 2016, published 2018).

This assay concerns the target T1, CCR(9) (Homo sapiens, UniProt P51686).
T1 construct: CCR(9)-expressing cells such as T cell line MOLT-4 cells; host or cells: MOLT-4 T cell line
T1 sequence (P51686 1-369): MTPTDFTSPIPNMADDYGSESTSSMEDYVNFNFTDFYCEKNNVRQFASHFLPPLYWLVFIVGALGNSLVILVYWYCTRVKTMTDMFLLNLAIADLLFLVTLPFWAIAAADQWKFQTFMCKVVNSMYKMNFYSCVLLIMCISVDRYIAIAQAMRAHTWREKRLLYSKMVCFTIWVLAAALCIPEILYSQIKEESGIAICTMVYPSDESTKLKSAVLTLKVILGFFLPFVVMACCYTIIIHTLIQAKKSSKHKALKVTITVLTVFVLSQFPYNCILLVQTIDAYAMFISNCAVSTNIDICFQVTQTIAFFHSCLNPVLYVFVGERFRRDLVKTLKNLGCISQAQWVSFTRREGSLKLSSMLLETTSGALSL
In words: calcium mobilization assay (FLIPR, MOLT-4 cells, hTECK). It counts as cell-based. The following applies: read-out: CCR(9) Ca^2+. How it is done:
In calcium signaling assays used to determine the ability of a compound to interfere with binding between a chemokine receptor and a known chemokine ligand, chemokine receptor-expressing cells (CCR(9)-expressing cells such as T cell line MOLT-4 cells) are first incubated with a compound of interest, such as a potential chemokine antagonist, at increasing concentrations. The cell number can be from 10^5 to 5×10^6 cells per well in a 96-well microtiter plate. The concentration of the compound being tested may range from 0 to 100 μM. After a period of incubation (which can range from 5 to 60 minutes), the treated cells are placed in a Fluorometric Imaging Plate Reader (FLIPR®) (available from Molecular Devices Corp., Sunnyvale, Calif.) according to the manufacturer's instruction. The FLIPR® system is well known to those skilled in the art as a standard method of performing assays. The cells are then stimulated with an appropriate amount of the chemokine ligand (TECK for CCR(9)) at 5-100 nM final concentration, and the signal of intracellular calcium increase (also called calcium flux) is recorded. The efficacy of a compound as an inhibitor of binding between the chemokine and the ligand can be calculated as an IC50 (the concentration needed to cause 50% inhibition in signaling) or IC90 (at 90% inhibition).
MOLT-4 cells were obtained from the American Type Culture Collection (Manassas, Va.) and cultured in RPMI tissue culture medium supplemented with 10% fetal calf serum (FCS) in a humidified 5% CO2 incubator at 37° C. Recombinant human chemokine proteins TECK was obtained from R&D Systems (Minneapolis, Minn.). ChemoTX® chemotaxis microchambers were purchased from Neuro Probe (Gaithersburg, Md.). CyQUANT® cell proliferation kits were purchased from Molecular Probes (Eugene, Oreg.). Calcium indicator dye Fluo-4 AM was purchased from Molecular Devices (Mountain View, Calif.).
A cytoplasmic calcium mobilization assay was used to determine the efficacy of potential receptor antagonists at blocking the signals mediated through chemokine receptors, such as CCR(9). This assay was routinely performed using the Fluorescent Imaging Plate Reader (FLIPR, Molecular Devices). MOLT-4 cells were labeled with the fluorescent-indicator dye Fluo-4 (Molecular Devices) according to the manufacturer's directions. After labeling, the cells were collected by centrifugation (400×g for 5 min at room temperature) and resuspended in HBSS to a cell density of 2.5×10^6 cells/mL. Test compounds were prepared in 100% DMSO at 100× the final concentration; generally, a range of concentrations of each compound were tested, with final concentrations from 0.1 nM to 10,000 nM. Labeled cells (300 μL) were mixed with compound or an equal volume of DMSO (3 μL) in a 96-well plate; after thorough mixing, 50 μL of this cell/compound mixture was added to each of four wells of a 384-well FLIPR plate. The chemokine agonist (i.e., hTECK), prepared in HBSS at a 5× concentration of the previously determined EC^50 concentration, was added to each well and resulting changes in the fluorescent intensity, indicative of chemokine receptor-mediated signaling, were recorded on the FLIPR.
(Calcium assays in cells follow changes in intracellular calcium, usually with a dye or a luminescent sensor.)

pIC50: −log10 of the molar value.

Turning to `Cc1cc(NS(=O)(=O)c2ccc(C(C)(C)C)cc2)n(-c2ccc3ccccc3c2)n1`, the pIC50 is more than 7.00.
